“And” between values parts separate entries of the source, which are not always exact repeats. Equal values may be shown once.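 Each compound was tested at five concentrations against cells in 96-well plates for 48 hours. GI50: concentration for 50% inhibition of growth. At the TGI there is no net growth.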 Some results are limits rather than exact numbers.

The values below come from PubChem BioAssay (NCI).

Among the test systems are CAKI-1 renal; DU-145 prostate; HCC-2998 colon; HCT-116 colon; HCT-15 colon; HL-60(TB) leukemia; HOP-92 NSCLC; MALME-3M melanoma; NCI-H226 lung; SF-295 CNS.
Holding throughout (assay): NCI anticancer screen, dose series, 48 h

Consider `FC(F)(F)c1ccc(-c2ncc(-c3ccc(C(F)(F)F)cc3)c(NCc3cc(C(F)(F)F)cc(C(F)(F)F)c3)n2)cc1`, for which the GI50 is 3.36 µM with CAKI-1 renal; 5.25 µM in the assay on DU-145 prostate; 5.76 µM with HCC-2998 colon; 3.84 µM in the assay with HCT-116 colon; 3.74 µM with HCT-15 colon; 4.79 µM with HL-60(TB) leukemia. In addition, the GI50 in the assay with HOP-92 NSCLC was 1.7 µM; in the assay on MALME-3M melanoma it was 6.44 µM; with NCI-H226 lung, 3.76 µM; in the assay with SF-295 CNS, 2.94 µM. In addition, the TGI in the assay on CAKI-1 renal was 28 µM; in the assay on DU-145 prostate, greater than 100 µM; in the assay on HCC-2998 colon it was 46.7 µM; in the assay with HCT-116 colon, greater than 100 µM; in the assay on HCT-15 colon it was greater than 100 µM; with HL-60(TB) leukemia it was 36.2 µM. Moreover, the TGI with HOP-92 NSCLC turned out to be 5.05 µM; in the assay on MALME-3M melanoma, 46.3 µM; in the assay on NCI-H226 lung, 83.8 µM; in the assay on SF-295 CNS it was 28.3 µM.

Turning to `COc1cc(/C=C/C(=O)c2c(C)nc3ccccc3c2C)ccc1OCCCCOc1cc2c(cc1OC)C(=O)N1CCC[C@H]1C=N2`, the GI50 in the assay with CAKI-1 renal is 0.331 µM; in the assay with DU-145 prostate it was 0.368 µM; in the assay with HCC-2998 colon, 0.519 µM; in the assay on HCT-116 colon, 0.432 µM; in the assay on HCT-15 colon it was 1.71 µM; with HL-60(TB) leukemia it was 0.196 µM. Further, the GI50 in the assay with HOP-92 NSCLC is 0.19 µM; with MALME-3M melanoma, 0.554 µM; with NCI-H226 lung, 1.3 µM; in the assay on SF-295 CNS, 0.416 µM. The TGI with CAKI-1 renal is 1.44 µM; in the assay with DU-145 prostate, 1.13 µM; with HCC-2998 colon, 1.16 µM; with HCT-116 colon, 6.49 µM; in the assay on HCT-15 colon it was 5.18 µM; in the assay with HL-60(TB) leukemia, 0.514 µM. Also, the TGI was 0.632 µM in the assay on HOP-92 NSCLC, 2.37 µM in the assay on MALME-3M melanoma, 3.26 µM in the assay on NCI-H226 lung and 1.56 µM with SF-295 CNS.

In the case of `c1ccc(-c2cn(-c3ccccc3)c(-c3ccccc3)n2)cc1`, the GI50 in the assay with CAKI-1 renal was 17.4 µM; in the assay with DU-145 prostate it was 11.6 µM; in the assay on HCC-2998 colon, 7.82 µM; in the assay with HCT-116 colon, 1.76 µM; in the assay with HCT-15 colon, 3.84 µM; in the assay with HL-60(TB) leukemia, 3.07 µM. For the same molecule, the GI50 in the assay with HOP-92 NSCLC was 20.1 µM; in the assay with MALME-3M melanoma, 19.5 µM; in the assay on NCI-H226 lung, 19.8 µM; in the assay on SF-295 CNS, 12.9 µM. In addition, the TGI with CAKI-1 renal came out at 31.6 µM; with DU-145 prostate it was 23.8 µM; with HCC-2998 colon, 20.6 µM; in the assay on HCT-116 colon, 3.27 µM; in the assay on HCT-15 colon, 17.8 µM; in the assay with HL-60(TB) leukemia it was 17.9 µM. The TGI with HOP-92 NSCLC is 50.4 µM; in the assay on MALME-3M melanoma it was 36.7 µM; in the assay on NCI-H226 lung, 37.7 µM; with SF-295 CNS, 28.4 µM.

As to `O=C(O)c1ccc(C(=O)O)c(C(=O)O)c1.[NH-]C1CCCCC1[NH-].[Pt+2]`, the GI50 in the assay on CAKI-1 renal was 1.86 µM; in the assay on DU-145 prostate, 11.1 µM; in the assay with HCC-2998 colon, 13.4 µM; with HCT-116 colon, 1.07 µM; with HCT-15 colon, 2.05 µM; with HL-60(TB) leukemia, 0.735 µM and 4.08 µM. The GI50 in the assay on HOP-92 NSCLC is 14.8 µM; with MALME-3M melanoma it was 1.67 µM; in the assay with NCI-H226 lung it was 2.02 µM; with SF-295 CNS it was 5.52 µM. Also, the TGI in the assay with CAKI-1 renal came to 32.7 µM; with DU-145 prostate, 84.1 µM; with HCC-2998 colon, 48.7 µM; in the assay on HCT-116 colon, 47.3 µM; in the assay with HCT-15 colon it was 33.7 µM; in the assay on HL-60(TB) leukemia, 18.8 µM. Besides, the TGI in the assay with HOP-92 NSCLC came to 53.9 µM; in the assay with MALME-3M melanoma, 22.8 µM; in the assay with NCI-H226 lung it was 32.2 µM; with SF-295 CNS it was 68.6 µM.

With `Cc1cc(=O)oc2cc(OC(=O)Nc3ccccc3)ccc12`, the TGI is greater than 100 µM with CAKI-1 renal; greater than 100 µM in the assay on DU-145 prostate; greater than 100 µM in the assay on HCC-2998 colon; greater than 100 µM with HCT-116 colon; greater than 100 µM in the assay on HCT-15 colon; 44.9 µM with HL-60(TB) leukemia. The TGI in the assay on HOP-92 NSCLC was 75.4 µM; in the assay with MALME-3M melanoma, greater than 100 µM; in the assay on NCI-H226 lung it was greater than 100 µM; with SF-295 CNS it was greater than 100 µM.

With `C/C(=N/NC(=S)N1CC2CCC(CC2)C1)c1cnccn1`, the TGI in the assay on CAKI-1 renal was 11.3 µM; with DU-145 prostate it was 13.8 µM; in the assay on HCC-2998 colon, 13.6 µM; in the assay on HCT-116 colon it was 12.3 µM; in the assay on HCT-15 colon, 16 µM; with HL-60(TB) leukemia, 3.18 µM. The TGI in the assay on HOP-92 NSCLC was found to be 12.7 µM; with MALME-3M melanoma, 10.3 µM; in the assay on NCI-H226 lung, 1.33 µM; in the assay on SF-295 CNS, 12.1 µM.

Consider `CC1(C)OC2C(CO)OC(n3ccc(N)nc3=O)C2O1` (stereo not given), for which the TGI with CAKI-1 renal, with DU-145 prostate, in the assay on HCC-2998 colon, in the assay on HCT-116 colon, in the assay with HCT-15 colon and in the assay with HL-60(TB) leukemia was greater than 100 µM in each case. In addition, the TGI in the assay on HOP-92 NSCLC, with MALME-3M melanoma, in the assay with NCI-H226 lung and with SF-295 CNS was greater than 100 µM each time.

As to `CCCCN(CC)CCCCCCCCCCN1CCCc2cc(OC)ccc21`, the GI50 with CAKI-1 renal is 2.13 µM; in the assay with DU-145 prostate, 6.48 µM; in the assay on HCC-2998 colon it was 2.32 µM; in the assay on HCT-116 colon it was 1.73 µM; with HCT-15 colon, 3.3 µM; with HL-60(TB) leukemia, 2.07 µM. Moreover, the GI50 is 2.19 µM in the assay on HOP-92 NSCLC, 2.33 µM with MALME-3M melanoma, 2.8 µM in the assay on NCI-H226 lung and 1.8 µM in the assay on SF-295 CNS. Also, the TGI in the assay on CAKI-1 renal turned out to be 7.47 µM; in the assay on DU-145 prostate, 53 µM; in the assay on HCC-2998 colon it was 6.38 µM; in the assay with HCT-116 colon, 3.63 µM; in the assay on HCT-15 colon it was 13.6 µM; with HL-60(TB) leukemia, 5 µM. Also, the TGI in the assay with HOP-92 NSCLC was 6.76 µM; in the assay with MALME-3M melanoma, 4.98 µM; in the assay on NCI-H226 lung, 8.16 µM; with SF-295 CNS, 3.72 µM.

Turning to `CC(C)OCc1cc(CN2CCN(c3cccc(Cl)c3)CC2)c(O)c2ncccc12`, the GI50 was 0.223 µM in the assay with CAKI-1 renal; 0.876 µM in the assay with DU-145 prostate; 0.92 µM in the assay on HCC-2998 colon; 0.425 µM in the assay on HCT-116 colon; 0.153 µM with HCT-15 colon; 0.388 µM in the assay on HL-60(TB) leukemia. Also, the GI50 is 1.43 µM in the assay with HOP-92 NSCLC, 1.03 µM in the assay with MALME-3M melanoma, 1.39 µM in the assay on NCI-H226 lung and 1.07 µM in the assay on SF-295 CNS. Further, the TGI was 11 µM in the assay with CAKI-1 renal; 14.7 µM in the assay on DU-145 prostate; 11.3 µM with HCC-2998 colon; 3.79 µM in the assay on HCT-116 colon; 17.6 µM in the assay with HCT-15 colon; 2.84 µM with HL-60(TB) leukemia. The TGI was found to be 19.4 µM in the assay with HOP-92 NSCLC, 7.33 µM in the assay with MALME-3M melanoma, 6.56 µM with NCI-H226 lung and 11.6 µM in the assay with SF-295 CNS.

Regarding `O=[N+]([O-])/C=C/c1cc2ccc3ccccc3c2[nH]1`, the TGI is 6.15 µM with CAKI-1 renal; 3.9 µM in the assay with DU-145 prostate; 3.5 µM in the assay on HCC-2998 colon; 3.43 µM in the assay on HCT-116 colon; greater than 23.7 µM in the assay with HCT-15 colon; 5.29 µM in the assay with HL-60(TB) leukemia. The TGI is 3.64 µM in the assay on HOP-92 NSCLC, 3.31 µM in the assay on MALME-3M melanoma, 2.78 µM in the assay with NCI-H226 lung and 5.86 µM with SF-295 CNS.

`COc1cc2c3c(n(CCCN4CCCNCC4)c(=O)c2cc1OC)-c1cc2c(cc1C3=O)OCO2`: the GI50 in the assay on CAKI-1 renal is 0.12 µM; in the assay on DU-145 prostate it was 0.166 µM; in the assay with HCC-2998 colon, 3.07 µM; in the assay with HCT-116 colon, 0.282 µM; with HCT-15 colon it was 1.09 µM; in the assay on HL-60(TB) leukemia it was 0.147 µM. The GI50 in the assay on HOP-92 NSCLC is 0.135 µM; with MALME-3M melanoma, 2.47 µM; in the assay on NCI-H226 lung it was 0.303 µM; in the assay with SF-295 CNS it was 0.2 µM. Also, the TGI in the assay on CAKI-1 renal is 1.65 µM; in the assay on DU-145 prostate it was 2.02 µM; with HCC-2998 colon, 9.45 µM; in the assay on HCT-116 colon, 2.3 µM; in the assay with HCT-15 colon, 6.74 µM; with HL-60(TB) leukemia, 0.976 µM. For the same molecule, the TGI with HOP-92 NSCLC turned out to be 0.471 µM; in the assay on MALME-3M melanoma it was 11.9 µM; with NCI-H226 lung it was 3.03 µM; in the assay with SF-295 CNS it was 2.66 µM.

For the molecule `Cc1cc(C(O)(c2ccc(Nc3ccccc3)cc2)c2ccc(Nc3ccc(S(=O)(=O)O)cc3)cc2)ccc1N` (stereo not given), the GI50 was 2.24 µM in the assay with CAKI-1 renal; 1.32 µM in the assay with DU-145 prostate; 1.23 µM in the assay on HCC-2998 colon; 1.21 µM with HCT-116 colon; 1.04 µM with HCT-15 colon; 1.66 µM in the assay on HL-60(TB) leukemia. Further, the GI50 in the assay on HOP-92 NSCLC is 1.03 µM; with MALME-3M melanoma, 1.58 µM; in the assay with NCI-H226 lung it was 1.63 µM; in the assay on SF-295 CNS, 1.69 µM. Besides, the TGI in the assay on CAKI-1 renal came to 9.14 µM; with DU-145 prostate, 2.67 µM; with HCC-2998 colon, 2.58 µM; in the assay with HCT-116 colon, 2.65 µM; with HCT-15 colon it was 2.95 µM; in the assay on HL-60(TB) leukemia, 6.12 µM. Moreover, the TGI in the assay on HOP-92 NSCLC worked out at 2.54 µM; in the assay on MALME-3M melanoma, 3.11 µM; in the assay on NCI-H226 lung, 3.42 µM; with SF-295 CNS it was 3.25 µM.
